US20250230138A1, “COMPOUNDS HAVING A T-STRUCTURE FORMED BY AT LEAST FOUR CYCLES FOR USE IN THE TREATMENT OF CANCER AND OTHER INDICATIONS” (TheRas, Inc., priority 2022, published 2025)
Like-named read-outs stand apart in the source and are kept apart here.

Legend:
[1] = target: Cys242 in human PIK3CA (157-299) (Homo sapiens (Human), UniProt P42336); assay: Covalent modification assay using MALDI-TOF MS; type: biochemical; conditions: 4 h reaction time point; 3.33 μM protein target, 1:7.5 protein to compound ratio (compounds 1-852)
Cys242 in human PIK3CA (157-299), sequence (P42336 157-299): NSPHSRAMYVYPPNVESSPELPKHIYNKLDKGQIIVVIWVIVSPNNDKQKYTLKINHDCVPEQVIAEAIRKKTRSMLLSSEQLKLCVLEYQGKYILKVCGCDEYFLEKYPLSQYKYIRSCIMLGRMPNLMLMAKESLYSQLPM
Method in brief: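 Covalent adduct formation was read by linear-mode MALDI-TOF with sinapinic acid matrix, reported as modified-protein peak height divided by total protein peak heights. Reactions held PIK3CA (157-299) at 1 or 3.33 μM in HEPES/NaCl/MgCl2 buffer, pH 7.3, sampled after 15 min to 4 h at room temperature.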

[2] = tested on: pAKT in BT474 cells; assay: Cell-based pAKT HTRF assay in BT474 cells; conditions: BT474 cells, 4 hr incubation, Compounds 10-999, read-out: pAKT inhibition IC50 in BT474 cells
Method in brief: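 pAKT was measured by HTRF after a 4 hr compound exposure in BT474 cells (DMEM, 10% FBS, 0.25% DMSO), using 9 concentrations from 3 μM in 3-fold steps. Cell lysates were incubated with the Eu cryptate/d2 antibody pair at room temperature for 4 to 24 h. The plate was then read at 320 nm excitation and 615 nm emission.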

Row | Compound | IC50 [2] | IC50 ([2]; Homo sapiens, BT-474) | % of modification [1]
1 | C=CC(=O)N1CC(n2cc(-c3nc(-c4ccc5c(c4)CCNCC5)c4ccsc4c3-c3ccc(F)cc3OC)cn2)C1 [Compound 102] | 0.1 to 1 µM |  | A (percent of modification of PIK3CA protein ≥75%)
2 | C=CC(=O)N1CCc2ncc(-c3nc(-c4ccc5c(c4)CCNCC5)c4ccsc4c3-c3ccc(F)cc3OC)cc2C1 [Compound 103] | 0.1 to 1 µM |  | A (percent of modification of PIK3CA protein ≥75%)
3 | C=CC(=O)N1CC(n2cc(-c3nc(-c4ccc5c(c4)CCNC5)c4ncsc4c3-c3ccc(F)cc3OC)cn2)C1 [Compound 104, 1-[3-[4-[7-(4-fluoro-2-methoxy-phenyl)-4-(1,2,3,4-tetrahydroisoquinolin-6-yl)thiazolo[4,5-c]pyridin-6-yl]pyrazol-1-yl]azetidin-1-yl]prop-2-en-1-one] |  | 0.1 to 1 µM | A (percent of modification of PIK3CA protein ≥75%)
4 | C=CC(=O)N1CC(n2cc(-c3nc(N4CC5(CCNCC5)CC4=O)c4ccsc4c3-c3ccc(F)cc3OCCOC)cn2)C1 [Compound 106] | > 3 µM |  | C (25%≤percent of modification <50%)
5 | C=CC(=O)N1CC(n2cc(-c3nc(-c4ccc5c(c4)CCNC5)c4ccsc4c3-c3ccc(F)cc3F)cn2)C1 [Compound 108] | 0.1 to 1 µM |  | A (percent of modification of PIK3CA protein ≥75%)
6 | C=CC(=O)N1CC(n2cc(-c3nc(-c4ccc5c(c4)CCNC5)c4c(c3-c3ccc(F)cc3OCCOC)CCC4)cn2)C1 [Compound 109] | 0.1 to 1 µM |  | A (percent of modification of PIK3CA protein ≥75%)
7 | C=CC(=O)N1CC(n2cc(-c3nc(-c4ccc5c(c4)CCNC5)c4ccsc4c3-c3ccc(F)cc3OC)ccc2=O)C1 [Compound 110, 5-[7-(4-fluoro-2-methoxy-phenyl)-4-(1,2,3,4-tetrahydroisoquinolin-6-yl)thieno[3,2-c]pyridin-6-yl]-1-(1-prop-2-enoylazetidin-3-yl)pyridin-2-one] |  | 0.1 to 1 µM | A (percent of modification of PIK3CA protein ≥75%)
8 | C=CC(=O)N1CCc2oc(-c3nc(-c4ccc5c(c4)CCNC5)c4ccsc4c3-c3ccc(F)cc3OC)nc2C1 [Compound 112, 1-[2-[7-(4-fluoro-2-methoxy-phenyl)-4-(1,2,3,4-tetrahydroisoquinolin-6-yl)thieno[3,2-c]pyridin-6-yl]-6,7-dihydro-4H-oxazolo[4,5-c]pyridin-5-yl]prop-2-en-1-one] |  | 0.1 to 1 µM | A (percent of modification of PIK3CA protein ≥75%)
9 | CC#CC(=O)N1CC(n2cc(-c3nc(-c4ccc5c(c4)CCNC5)c4ccsc4c3-c3ccc(F)cc3OC)cn2)C1 [Compound 113] | > 3 µM |  | D (percent of modification <25%)
10 | C=C(F)C(=O)N1CC(n2cc(-c3nc(-c4ccc5c(c4)CCNC5)c4ccsc4c3-c3ccc(F)cc3OC)cn2)C1 [Compound 114] | 1 to 3 µM |  | A (percent of modification of PIK3CA protein ≥75%)
11 | C=CC(=O)N1CC(n2cc(-c3nc(-c4ccc5c(c4)CCNC5)c4ccsc4c3-c3ccc(F)cc3C(F)F)cn2)C1 [Compound 120] | 0.1 to 1 µM |  | A (percent of modification of PIK3CA protein ≥75%)
12 | C=CC(=O)N1CC(n2cc(-c3nc(N4CCC5(CC4)COC5)c4ccsc4c3-c3ccc(F)cc3OCCOC)cn2)C1 [Compound 122] | 0.1 to 1 µM |  | A (percent of modification of PIK3CA protein ≥75%)
13 | C=CC(=O)N1CC(n2cc(-c3nc(N4CCN5CCCC5C4)c4ccsc4c3-c3ccc(F)cc3OCCOC)cn2)C1 (stereo not shown) [Compound 123] | 0.1 to 1 µM |  | A (percent of modification of PIK3CA protein ≥75%)
14 | C/C=C/C(=O)N1CC(n2cc(-c3nc(-c4ccc5c(c4)CCNC5)c4ccsc4c3-c3ccc(F)cc3OC)cn2)C1 [Compound 129] | > 3 µM |  | D (percent of modification <25%)

Second part, led by results:

Row | IC50 [2] | IC50 ([2]; Homo sapiens, BT-474) | Compound | % of modification [1]
15 | < 0.1 µM |  | C=CC(=O)N1CCc2c(nc(-c3nc(-c4ccc5c(c4)CCNC5)c4ccsc4c3-c3ccc(F)cc3OCCOC)n2C)C1 [Compound 99] | A (percent of modification of PIK3CA protein ≥75%)
16 | 0.1 to 1 µM |  | C=CC(=O)N1CCc2nc(-c3nc(-c4ccc5c(c4)CCNC5)c4ccsc4c3-c3ccc(F)cc3OCCOC)n(C)c2C1 [Compound 100] | A (percent of modification of PIK3CA protein ≥75%)
17 |  | < 0.1 µM | C=CC(=O)N1CCn2cc(-c3nc(-c4ccc5c(c4)CCNC5)c4ccsc4c3-c3ccc(F)cc3OCCOC)nc2C1 [Compound 101, 1-[2-[7-[4-fluoro-2-(2-methoxyethoxy)phenyl]-4-(1,2,3,4-tetrahydroisoquinolin-6-yl)thieno[3,2-c]pyridin-6-yl]-6,8-dihydro-5H-imidazo[1,2-a]pyrazin-7-yl]prop-2-en-1-one] | A (percent of modification of PIK3CA protein ≥75%)
18 |  | < 0.1 µM | C=CC(=O)N1CCn2nc(-c3nc(-c4ccc5c(c4)CCNC5)c4ccsc4c3-c3ccc(F)cc3OCCOC)nc2C1 [Compound 105, 1-[2-[7-[4-fluoro-2-(2-methoxyethoxy)phenyl]-4-(1,2,3,4-tetrahydroisoquinolin-6-yl)thieno[3,2-c]pyridin-6-yl]-6,8-dihydro-5H-[1,2,4]triazolo[1,5-a]pyrazin-7-yl]prop-2-en-1-one] | A (percent of modification of PIK3CA protein ≥75%)
19 | < 0.1 µM |  | C=CC(=O)N1CCc2nc(-c3nc(-c4ccc5c(c4)CCN(C)C5)c4ccsc4c3-c3ccc(F)cc3OCCOC)sc2C1 [Compound 107] | A (percent of modification of PIK3CA protein ≥75%)
20 | < 0.1 µM |  | C=CC(=O)N1CCc2ncc(-c3nc(-c4ccc5c(c4)CS(=O)(=O)C5)c4ccsc4c3-c3ccc(F)cc3OCCOC)cc2C1 [Compound 111] | A (percent of modification of PIK3CA protein ≥75%)
21 |  | < 0.1 µM | C=CC(=O)N1CCn2nc(-c3nc(-c4ccc5c(c4)CCNC5)c4ccsc4c3-c3ccc(F)cc3OCCOC)cc2C1 [Compound 115, 1-[2-[7-[4-fluoro-2-(2-methoxyethoxy)phenyl]-4-(1,2,3,4-tetrahydroisoquinolin-6-yl)thieno[3,2-c]pyridin-6-yl]-6,7-dihydro-4H-pyrazolo[1,5-a]pyrazin-5-yl]prop-2-en-1-one] | A (percent of modification of PIK3CA protein ≥75%)
22 | < 0.1 µM |  | C=CC(=O)N1CCc2nc(-c3nc(-c4ccc5c(c4)CS(=O)(=O)C5)c4ccsc4c3-c3ccc(F)cc3OCCOC)sc2C1 [Compound 116] | A (percent of modification of PIK3CA protein ≥75%)
23 | < 0.1 µM |  | C=CC(=O)N1CCc2ncc(-c3nc(-c4cnc5c(c4)CNC(=O)C5)c4ccsc4c3-c3ccc(F)cc3OCCOC)cc2C1 [Compound 117] | A (percent of modification of PIK3CA protein ≥75%)
24 |  | < 0.1 µM | C=CC(=O)N1CCc2nc(-c3nc(-c4ccc5c(c4)CCNC5=O)c4ccsc4c3-c3ccc(F)cc3OCCOC)sc2C1 [Compound 118, 6-[7-[4-fluoro-2-(2-methoxyethoxy)phenyl]-6-(5-prop-2-enoyl-6,7-dihydro-4H-thiazolo[5,4-c]pyridin-2-yl)thieno[3,2-c]pyridin-4-yl]-3,4-dihydro-2H-isoquinolin-1-one] | A (percent of modification of PIK3CA protein ≥75%)
25 | < 0.1 µM |  | C=CC(=O)N1CCc2nc(-c3nc(-c4cnc5c(c4)CNC(=O)C5)c4ccsc4c3-c3ccc(F)cc3OCCOC)sc2C1 [Compound 119] | A (percent of modification of PIK3CA protein ≥75%)
26 | < 0.1 µM |  | C=CC(=O)N1CCc2nc(-c3nc(-c4ccc5c(c4)CCNCC5)c4ccsc4c3-c3ccc(F)cc3OCCOC)sc2C1 [Compound 121] | A (percent of modification of PIK3CA protein ≥75%)
27 | < 0.1 µM |  | C=CC(=O)N1CCc2nc(-c3nc(-c4cnn(CC(F)F)c4)c4ccsc4c3-c3ccc(F)cc3OCCOC)sc2C1 [Compound 125] | A (percent of modification of PIK3CA protein ≥75%)
28 | < 0.1 µM |  | C=CC(=O)N1CCc2nc(-c3nc(-c4cnn(CCO)c4)c4ccsc4c3-c3ccc(F)cc3OCCOC)sc2C1 [Compound 126] | A (percent of modification of PIK3CA protein ≥75%)
29 | 1 to 3 µM |  | CC#CC(=O)N1CCc2nc(-c3nc(-c4ccc5c(c4)CCNC5)c4ccsc4c3-c3ccc(F)cc3OCCOC)sc2C1 [Compound 127] | D (percent of modification <25%)
30 | < 0.1 µM |  | C=CC(=O)N1CCc2nc(-c3nc(-c4ccc5c(c4)CCN(CCO)C5)c4ccsc4c3-c3ccc(F)cc3OCCOC)sc2C1 [Compound 128] | A (percent of modification of PIK3CA protein ≥75%)
31 | < 0.1 µM |  | C=CC(=O)N1CCc2nc(-c3nc(-c4ccc5c(c4)CCNC5)c4ccsc4c3-c3ccc(F)cc3OCCO)sc2C1 [Compound 130] | A (percent of modification of PIK3CA protein ≥75%)
32 | < 0.1 µM |  | C=CC(=O)N1CCc2nc(-c3nc(-c4ccc(=O)[nH]c4)c4ccsc4c3-c3ccc(F)cc3OCCOC)sc2C1 [Compound 131] | A (percent of modification of PIK3CA protein ≥75%)
